# Laboratory results: patent US20210371388A1, “Bicyclic Carboxamide with Exocyclic Urea Derivatives as Antivirals for the Treatment of HBV Infection” (Baruch S. Blumberg Institute, priority 2020, published 2021)
# Test system: HBV replication in AML12HBV10 cells
# Assay: Antiviral efficacy: HBV DNA in AML12HBV10 cell lysates by dot-blot hybridization
# Assay type: cell-based
# Conditions: Hepatitis B virus, AML12HBV10, 48 h, read-out: Antiviral activity (EC50), AML12HBV10 cells, 48 hours treatment, concentration that reduces the amount of HBV DNA by 50%
# Experimental: The antiviral efficacy of the compounds of the disclosure, as presented in Table 2, were determined in AML12HBV10 cells. AML12HBV10 is an immortalized murine hepatocyte (AML12)-derived stable cell line that supports robust HBV replication in a tetracycline inducible manner (Xu et al.). The cells were seeded into 96 well plates at a density of 2×10^4 cells per well and cultured in DMEM/F12 media with 10% fetal bovine serum in the absence of tetracycline to allow pgRNA transcription and HBV DNA replication. One day after seeding, cells were left untreated or treated with a serial dilution of testing compounds, ranging from 50 μM to 0.39 μM, for 48 hours. Cells were then lysed by adding into each well of 100 μl lysis buffer containing 10 mM Tris-HCl (pH 7.6), 1 mM EDTA, 100 mM NaCl and 1% NP-40 and incubated at 37° C. for 30 minutes. Half amount (50 μλ) of cell lysate from each well was combined with equal volume of denaturing solution containing 0.5N NaOH and 1.5M NaCl. After 5 minute incubation, 100 μl of neutralization solution (1M Tris-HCl, pH 7.4, 1.5M NaCl) was added into each well. The denatured cell lysates (totally 200 μl) were applied onto Nylon membrane using 96-well dot-blot manifold (Biorad). HBV DNA in the cell lysates were determined by dot-blot hybridization with alpha-^32P-UTP-labelled riboprobe specific for HBV minus strand DNA. The antiviral efficacy of a compound of the disclosure was expressed as the concentration that reduces the amount of HBV DNA by 50% (EC50).
row,SMILES,EC50
1,O=C(Nc1ccc(F)c(Cl)c1)N1c2ccccc2NCC1CN1CCC(F)(F)C1 (centres unmarked) [Entry 79],1700 nM
2,CC(C)C1CNc2ccccc2N1C(=O)Nc1ccc(F)c(Cl)c1 (centres unmarked) [Entry 81],3500 nM
3,O=C(Nc1ccc(F)c(Cl)c1)N1CCNc2cc(F)c(F)cc21 [Entry 82],610 nM
4,O=C(Nc1ccc(F)c(Cl)c1)N1CCN(C(=O)Nc2ccc(F)c(Cl)c2)c2cc(F)c(F)cc21 [Entry 83],1180 nM
5,O=C1CC(c2ccc(F)cc2)N(C(=O)Nc2ccc(F)c(Cl)c2)c2ccccc21 (centres unmarked) [Entry 84],2370 nM
6,O=C1CCN(C(=O)Nc2ccc(F)c(Cl)c2)c2ccc(Br)cc21 [Entry 85],≥ 10000 nM
7,O=C1CCN(C(=O)Nc2ccc(F)c(Cl)c2)c2ccc(Cl)cc21 [Entry 86],4830 nM
8,O=C(Nc1ccc(F)c(Cl)c1)N1CCNc2cc(OCc3ccccc3)ccc21 [Entry 87],2820 nM
9,O=C(Nc1ccc(F)c(Cl)c1)N1C(c2ccccc2)CN[C@H]2CCCC[C@@H]21 (some centres unmarked) [Entry 88],≥ 10000 nM
10,O=C(Nc1ccc(F)c(Cl)c1)N1c2ccccc2NCC1CN1CCOCC1 (centres unmarked) [Entry 89],7300 nM
11,COC(=O)C1COCCN1CC1CNc2ccccc2N1C(=O)Nc1ccc(F)c(Cl)c1 (centres unmarked) [Entry 90],2200 nM
12,O=C(O)C1COCCN1CC1CNc2ccccc2N1C(=O)Nc1ccc(F)c(Cl)c1 (centres unmarked) [Entry 91],≥ 10000 nM
13,O=C(Nc1ccc(F)c(Cl)c1)N1CC(CN2CCOCC2)Nc2ccccc21 (centres unmarked) [Entry 96],≥ 10000 nM
14,COC(=O)[C@H]1CC(F)(F)CN1CC1CNc2ccccc2N1C(=O)Nc1ccc(F)c(Cl)c1 (some centres unmarked) [Entry 97],≥ 10000 nM
15,O=C(O)[C@H]1CC(F)(F)CN1CC1CNc2ccccc2N1C(=O)Nc1ccc(F)c(Cl)c1 (some centres unmarked) [Entry 98],≥ 10000 nM
16,COC(=O)[C@@H]1CC(F)(F)CN1CC1CNc2ccccc2N1C(=O)Nc1ccc(F)c(Cl)c1 (some centres unmarked) [Entry 100],1110 nM

row,SMILES,EC50
1,O=C(Nc1ccc(F)c(Cl)c1)N1c2ccccc2NCC1CN1CCC2(CC1)OCCO2 (centres unmarked) [Entry 103],≥ 10000 nM
2,CS(=O)(=O)N1CCN(CC2CNc3ccccc3N2C(=O)Nc2ccc(F)c(Cl)c2)CC1 (centres unmarked) [Entry 104],≥ 10000 nM
3,CCOC(=O)C1=C(F)CCN(CC2CNc3ccccc3N2C(=O)Nc2ccc(F)c(Cl)c2)C1 (centres unmarked) [Entry 105],≥ 10000 nM
4,CCOC(=O)C1CN(CC2CNc3ccccc3N2C(=O)Nc2ccc(F)c(Cl)c2)CCC1(F)F (centres unmarked) [Entry 106],7680 nM
5,O=C(O)C1CCCN(CC2CNc3ccccc3N2C(=O)Nc2ccc(F)c(Cl)c2)C1 (centres unmarked) [Entry 107],≥ 10000 nM
6,O=C(Nc1ccc(F)c(Cl)c1)N1c2ccccc2NCC1CN1CCC(F)(F)C(CO)C1 (centres unmarked) [Entry 108],2170 nM
7,O=C(Nc1ccc(F)c(Cl)c1)N1c2ccccc2NCC1CN1CCS(=O)(=O)CC1 (centres unmarked) [Entry 110],2000 nM
8,O=C(Nc1cc(F)c(F)c(F)c1)N1CCN(C(=O)Nc2ccc(F)c(Cl)c2)c2ccccc21 [Entry 111],500 nM
9,O=C(Nc1ccc(F)c(Cl)c1)N1CCN(C(=O)Nc2cc(Cl)c(F)cc2F)c2ccccc21 [Entry 112],290 nM
10,O=C(O)C1CN(CC2CNc3ccccc3N2C(=O)Nc2ccc(F)c(Cl)c2)CC(F)(F)C1 (centres unmarked) [Entry 113],450 nM
11,Cc1cc(NC(=O)N2CCNc3ccccc32)ccc1F [Entry 116],240 nM
12,N#Cc1cc(NC(=O)N2CCNc3ccccc32)ccc1F [Entry 119],520 nM
13,O=C1CCN(C(=O)Nc2ccc(F)c(C(F)(F)F)c2)C2CCCCC12 (centres unmarked) [Entry 120],1090 nM
14,O=C(Nc1ccc(F)c(C(F)(F)F)c1)N1CCNc2ccccc21 [Entry 122],320 nM
15,O=C(Nc1ccc(F)c(C(F)F)c1)N1CCNc2ccccc21 [Entry 125],190 nM
16,O=C1CCN(C(=O)Nc2cccc(Cl)c2)C2CCCCC12 (centres unmarked) [Entry 126],200 nM
